Measured values: patent US9556113B2, “Combination uses of dichloroacetate and oxamate, and their prodrugs, for cancer treatment” (The South Dakota Board of Regents, priority 2014, dated 2017)

Columns and labels:
[1] = In vivo release of DCA and oxamate from prodrugs, blood LC/MS/MS; design: species or system female C57BL/6 mice; conditions: i.p., 7.6 mg/mouse
Experimental: FIG. 16 provides LC/MS chromatograms derived from blood samples of mice dosed with prodrug 1 (AT-N4-001) (A). Mice were dosed with prodrug 1 (7.6 mg/mouse) by i.p. Blood samples were collected at 5 min and 25 min for mice dosed with prodrug 1 through retro-orbital bleeding with mice under general anesthesia. After protein precipitation by acetonitrile, samples were analyzed by LC/MS/MS. For samples derived from mice dosed with prodrug 1, the electrospray ion source was operated in the negative ionization mode for four minutes to detect DCA and oxamate before switched to the positive ionization mode to detect prodrug 1. Selected reaction monitoring (SRM) was performed to monitor the mass transition of 386→297 (1), 127→83 (DCA) and selected ion monitoring (SIM) was performed to monitor oxamate at the m/z of 88.0.
FIG. 17 provides LC/MS chromatograms derived from blood samples of mice dosed with prodrug 2 (AT-N4-002) (B). Mice were dosed with prodrug 2 (7.6 mg/mouse) by i.p. Blood samples were collected at 5 min and 30 min for a mouse dosed with prodrug 2 through retro-orbital bleeding with mice under general anesthesia. After protein precipitation by acetonitrile, samples were analyzed by LC/MS/MS. For samples derived from mice dosed with prodrug 2, all the parameters were the same as set for prodrug 1 except the electrospray ion source was operated in the negative ionization mode for all the analytes. Prodrug 2 was detected by monitoring the mass transition of 384→126.
In vivo release of the prodrugs was investigated with female C57BL/6 mice. Mice were housed four in a cage and received food and water ad libitum. All mice were used at approximately 7-10 weeks of age and given at least one week break after arrival. All experimental protocols were approved by the Institutional Animal Care and Use Committee at South Dakota State University. A prodrug (1 or 2), suspended in 3% (v/v) Tween 80 in saline (30.4 mg/ml), was administered (7.6 mg/mouse) to mice by i.p. Blood samples were obtained through retro-orbital bleeding with mice under general anesthesia through the use of isoflurane. The blood samples were immediately frozen in liquid nitrogen and stored at −80° C. freezer before LC/MS/MS analysis.
The blood sample was quickly thawed at 37° C. The sample (200 μl) was first mixed with acetonitrile ([…]) and centrifuged at 14000 rpm for 2 min at 4° C. The precipitates were washed with additional acetonitrile (2×200 μl) and centrifuged. […]
LC/MS/MS analysis was completed on a ThermoFinnigan TSQ Quantum Ultra triple quadrupole mass spectrometer coupled with an Agilent Eclipse XDB-C18 column ([…], 5 μm) equipped with an Agilent XDB-C8 guard column. […] Prodrug 2 was detected by monitoring the mass transition of 384→126.

E6E7/Ras cells = experiment: Lactate secretion into culture medium, enzyme based assay; assay type: cell-based, mouse; conditions: 5 mM each, 4 hours
Experimental: FIG. 5 illustrates the reduction of lactate secretion in cultured cells by prodrugs AT-N4-001 and AT-N4-002. E6E7Ras cells were plated in 100 mm dishes and grown to confluence. The medium was changed to bicarbonate-free DMEM-10% FBS with or without the indicated treatments (5 mM each). Four hours later the medium was collected and lactate was measured using an enzyme based assay from Eton Bioscience. Con indicates the control samples for the DCA and Oxamate samples. DMSO indicates the vehicle only control for the AT-N4-001 and AT-N4-002 prodrug samples.
AT-N4-001 and AT-N4-002 should each release two molecules of DCA and one molecule of oxamate. Both DCA and oxamate are expected to reduce cellular lactate production. Therefore, we examined the changes in lactate after treatment of E6E7/Ras cells with the prodrugs. E6E7/Ras cells were seeded into 100 mm dishes and the next day treated with 5 mM AT-N4-001, 5 mM AT-N4-002, 5 mM DCA plus 5 mM oxamate, or 5 mM DCA alone. Culture medium was collected after 4 hours of treatment and lactate levels were determined (FIG. 5). […] To confirm the effects of these compounds on lactate production, the extra cellular acidification rate (ECAR) was measured using a Seahorse XF24 Extracellular Flux analyzer. Since lactate is transported from cells together with a proton, acidification of the culture medium (ECAR) is an estimate of lactate production and the glycolytic rate of cells. In the experiment shown in FIG. 6A, ECAR measurements were initiated in the absence of glucose. At point A, glucose was added and ECAR measurements continued. […] At point B, additional glucose along with vehicle (control), DCA plus oxamate, or AT-N4-002 was added. […] This is shown by a bar graph in FIG. 6B.

[2] = Chemical stability (hydrolysis) in aqueous acetonitrile, HPLC; assay type: physicochemical; conditions: water:acetonitrile 1:1, ambient temperature, in 4 hours, 0.4 mg/mL
Experimental: FIG. 15 provides a graph of the hydrolysis of prodrug 1 (FIG. 15A) and prodrug 2 (FIG. 15B) in aqueous acetonitrile solution. Prodrug 1 or prodrug 2 (0.42 mg/mL) in aqueous acetonitrile (H2O:CH3CN=1:1) was stirred at ambient temperature. Aliquots were withdrawn and analyzed for the prodrug by HPLC as described in the experimental section.
Once the two prodrugs were obtained, their chemical stability and metabolic stability were determined. The chemical stability of prodrug 1 and prodrug 2 was determined in aqueous acetonitrile at ambient temperature. The prodrug (0.4 mg/mL) a mixture of water and acetonitrile (1:1) at ambient temperature. Aliquots were taken from the solution periodically and checked by HPLC for the presence of the prodrug. The HPLC analysis was carried out on a Beckman Coulter HPLC (System Gold) system, controlled by a system controller (32 Karat workstation with PC), equipped with a 125 gradient pumping module, a 508 autosampler with a sample cooling system, and a 168 photodiode array detector. The HPLC conditions employed an Apollo C18 column (250 mm×4.6 mm i.d., 5 μm) (Alltech, Deerfield, Ill.) and aqueous acetonitrile (50% with 0.1% TFA) as the mobile phase. The flow rate was 0.8 mL/min and the detection wavelength was 210 nm. Under the condition, the retention time for prodrugs 1 and 2 was 9.83 and 9.87 minutes respectively. […]

Row | SMILES | release of DCA and oxamate in vivo [1] | prodrug in blood samples ([1]; after 25 min) | lactate production (culture medium, FIG. 5) (E6E7/Ras cells) | hydrolysis of prodrug [2] | prodrug in blood samples ([1]; after 30 min)
1 | NC(=O)C(=O)OC(COC(=O)C(Cl)Cl)COC(=O)C(Cl)Cl [AT-N4-001, 2-(2-Amino-2-oxoacetoxy)propane-1,3-diyl bis(2,2-dichloroacetate)] | quickly released DCA and oxamate | No prodrug was detected | significantly reduce lactate production | about 10% | 
2 | NC(=O)C(=O)OCC(COC(=O)C(Cl)Cl)OC(=O)C(Cl)Cl (centres unmarked) [AT-N4-002, 3-(2-amino-2-oxoacetoxy)propane-1,2-diyl bis(2,2-dichloroacetate)] | quickly released DCA and oxamate |  | significantly reduce lactate production | about 10% | No prodrug was detected
